Key:
CDK2 = CDK2 (Homo sapiens (Human), UniProt P24941); assay: CDK2 NanoBiT assay (HiBiT-tagged CDK2 degradation); type: cell-based; conditions: C-terminal HiBiT tag on CDK2, LgBiT, 24 hours
Experimental: Example 145. NanoBiT Assay
A HEK293 clonal line with a CRISPR knock-in C-terminal HiBiT tag on CDK2 and stably expressing LgBiT protein was obtained from Promega (Madison, WI). Cells were plated at 5000 cells per well using Multiflo (BioTek) in 384-well white solid bottom plates (Corning, 3570BC) in 25 ul volume in DMEM media (DMEM, high glucose, HEPES, no phenol red (ThermoFisher Scientific, 21063029)) containing 10% FBS (Corning, 35-075-CV), 1% Peniciliin/Streptomycin ((ThermoFisher Scientific, 15140-122), and 1% Endurazine (Nano-Glo Endurazine Live Cell Substrate (Promega, N2571)). Cells were incubated for 16 hours at 37 C, 5% CO2. 75 nL of a compound at 30 μM were dosed into the plate using an Echo® 650 liquid handler (Labcyte). Cells were incubated at 37° C., 5% CO2 for 24 hours and then signal was read on a Pherastar FSX using “LUM plus” optic module.
Analysis was performed in Scinamic (Scinamic, Cambridge, MA). Luminescence response (R) was calculated by the formula: response=100*(S−N)/(P−N) where S is the signal of the well, N and P the mean negative and positive control values respectively of the same plate. The luminescence response was then fitted in Scinamic using a 3-parameter agonist logistic fit (hillslope=1, EC50>0, top/bottom unconstrained).

CRBN-DDB1 = CRBN-DDB1 (Homo sapiens (Human), UniProt Q96SW2); assay: CRBN HTRF assay (Cy5-Thalidomide probe displacement); type: binding; conditions: CRBN-DDB1 2.5 nM, Cy5-Thalidomide 100 nM, 30 min; Ki from geometric mean IC50 by Cheng-Prusoff
Sequence of CRBN-DDB1 (Q96SW2 whole entry): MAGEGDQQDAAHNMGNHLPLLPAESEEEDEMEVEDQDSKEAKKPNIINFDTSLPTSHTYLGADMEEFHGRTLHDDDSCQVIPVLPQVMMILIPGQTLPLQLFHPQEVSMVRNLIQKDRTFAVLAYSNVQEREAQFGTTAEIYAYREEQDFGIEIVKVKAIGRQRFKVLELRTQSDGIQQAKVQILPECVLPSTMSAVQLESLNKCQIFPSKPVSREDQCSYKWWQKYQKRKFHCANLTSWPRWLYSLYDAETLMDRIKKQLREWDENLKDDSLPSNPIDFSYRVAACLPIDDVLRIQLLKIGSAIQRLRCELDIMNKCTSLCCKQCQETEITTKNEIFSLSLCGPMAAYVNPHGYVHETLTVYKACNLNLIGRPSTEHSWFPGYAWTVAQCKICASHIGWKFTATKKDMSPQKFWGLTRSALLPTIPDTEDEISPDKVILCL
Sequence of CRBN-DDB1 (Q16531 whole entry partner): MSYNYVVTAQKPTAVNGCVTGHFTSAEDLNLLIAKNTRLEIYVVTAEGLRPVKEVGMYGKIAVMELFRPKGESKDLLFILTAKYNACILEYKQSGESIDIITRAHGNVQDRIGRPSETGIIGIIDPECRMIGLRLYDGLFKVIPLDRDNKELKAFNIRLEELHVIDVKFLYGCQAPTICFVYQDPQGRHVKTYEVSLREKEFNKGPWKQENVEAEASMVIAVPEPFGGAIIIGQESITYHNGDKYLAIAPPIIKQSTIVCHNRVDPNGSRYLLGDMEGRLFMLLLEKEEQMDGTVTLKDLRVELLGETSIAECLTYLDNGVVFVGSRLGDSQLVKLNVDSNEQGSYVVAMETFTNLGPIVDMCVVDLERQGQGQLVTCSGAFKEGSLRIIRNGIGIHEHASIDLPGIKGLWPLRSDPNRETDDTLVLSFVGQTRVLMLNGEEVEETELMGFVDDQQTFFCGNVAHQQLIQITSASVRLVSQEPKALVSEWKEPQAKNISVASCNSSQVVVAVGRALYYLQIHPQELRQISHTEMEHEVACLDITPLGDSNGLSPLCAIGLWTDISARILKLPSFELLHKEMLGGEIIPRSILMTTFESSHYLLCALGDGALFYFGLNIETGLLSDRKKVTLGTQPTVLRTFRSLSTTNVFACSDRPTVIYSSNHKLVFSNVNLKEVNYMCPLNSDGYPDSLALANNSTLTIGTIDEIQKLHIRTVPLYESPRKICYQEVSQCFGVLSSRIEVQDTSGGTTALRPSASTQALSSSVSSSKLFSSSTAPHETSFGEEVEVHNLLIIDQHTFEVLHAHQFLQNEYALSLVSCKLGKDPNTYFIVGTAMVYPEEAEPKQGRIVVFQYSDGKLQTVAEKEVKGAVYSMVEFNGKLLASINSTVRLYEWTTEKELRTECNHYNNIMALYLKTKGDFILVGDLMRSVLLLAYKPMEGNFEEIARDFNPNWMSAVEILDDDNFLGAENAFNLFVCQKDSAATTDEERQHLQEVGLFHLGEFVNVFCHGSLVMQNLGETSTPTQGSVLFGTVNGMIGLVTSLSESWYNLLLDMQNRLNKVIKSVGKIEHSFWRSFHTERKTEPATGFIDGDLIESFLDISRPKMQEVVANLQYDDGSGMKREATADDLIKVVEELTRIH
Experimental: Compound activity was monitored in a Homogenous Time-Resolved Fluorescence (HTRF) assay using 1-[5-({2-[2-(2-{[2-(2,6-dioxopiperidin-3-yl)-1,3-dioxo-2,3-dihydro-1H-isoindol-4-yl]oxy}acetamido)ethoxy]ethyl}carbamoyl)pentyl]-3,3-dimethyl-2-[(1E,3E)-5-[(2E)-1,3,3-trimethyl-5-sulfo-2,3-dihydro-1H-indol-2-ylidene]penta-1,3-dien-1-yl]-3H-indol-1-ium-5-sulfonate as a fluorescent probe. Biochemical assays were conducted in Greiner white 384 well HiBase plates (Cat. No 784075-25) in 10 μL total volume. A one pot detection solution of CRBN-DDB1 (2.5 nM), Anti-His Terbium Cryptate Gold (1×, PerkinElmer Cat. #: 61HI2TLB), and Cy5-Thalidomide (100 nM, Tenova Cat.: T52461) was prepared in 20 mM HEPES, 20 mM NaCl, 0.2 mM TCEP, 0.2 mM EDTA, and 0.005% Tween20 was dispensed to each assay plate. Compounds were stored in dry, ambient temperatures at 10 mM. A 10-point, 1:3 dilution series was prepared from 10 mM stock concentrations in Echo-compatible LDV plates. 10 nL of each compound dilution series was dispensed into assays wells using an Echo 650 (Labcyte inc. USA). 10 nL of 10 mM Lenalidomide was transferred into the active-control wells for the assay and 10 nL of DMSO was transferred into the neutral-control wells. The assay was then allowed to incubate for 30 min at ambient temperature after transferring compound. Plate measurements were taken on a Pherastar FSX (BMG Labtech, Germany) using the HTRF Red filter (Ex. 337 nm, em1: 620 nm, em2: 665 nm) (Flashes: 50, Integration time: 60-400 us, Z-height: 10 mm, Ratio-multiplier: 10,000). The HTRF signal was then subsequently normalized to the neutral and active controls. Analysis and IC50 values were derived using KNIME analytics (KNIME Zurich) transformation and fitting within Collaborative Drug Discovery (Collaborative Drug Discovery USA). Ki was derived from the geometric mean of the IC50 values using the Cheng-Prustoff transformation.

Compound | Dmax (CDK2; HEK293, HEK293 clonal line) [%] | Ki (CRBN-DDB1) [nM] | Dmax (CDK2; HEK293 clonal line) [%]
CN(C(=O)C12CC(OC(=O)NC3CN(c4cc(F)c(C5CCC(=O)NC5=O)c(F)c4)C3)(C1)C2)c1cccc(Cl)c1 (stereo not drawn) [Compound 131, 3-((3-chlorophenyl)(methyl)carbamoyl)bicyclo[1.1.1]pentan-1-yl (1-(4-(2,6-dioxopiperidin-3-yl)-3,5-difluorophenyl)azetidin-3-yl)carbamate] | 50 to 80 | ≤ 100 | –
CN(C(=O)C12CC(OC(=O)NC3CN(c4cc(F)c(C5CCC(=O)NC5=O)c(F)c4)C3)(C1)C2)c1ccc(Cl)cc1 (stereo not drawn) [Compound 129, 3-((4-chlorophenyl)(methyl)carbamoyl)bicyclo[1.1.1]pentan-1-yl (1-(4-(2,6-dioxopiperidin-3-yl)-3,5-difluorophenyl)azetidin-3-yl)carbamate] | 50 to 80 | ≤ 100 | –
COc1c(N2CC(NC(=O)OCC3CC4(CCC4)C3)C2)ccc(C2CCC(=O)NC2=O)c1Cl (stereo not drawn) [Compound 63, spiro[3.3]heptan-2-ylmethyl (1-(3-chloro-4-(2,6-dioxopiperidin-3-yl)-2-methoxyphenyl)azetidin-3-yl)carbamate] | > 80 | 100 to 1000 | –
O=C1CCC(c2c(F)cc(N3CC(Nc4ncn(C5CC6(CCC6)C5)n4)C3)cc2F)C(=O)N1 (stereo not drawn) [Compound 105, 3-(2,6-difluoro-4-(3-((1-(spiro[3.3]heptan-2-yl)-1H-1,2,4-triazol-3-yl)amino)azetidin-1-yl)phenyl)piperidine-2,6-dione] | 50 to 80 | 100 to 1000 | –
CN(C(=O)C12CC(OC(=O)NC3CN(c4cc(F)c(C5CCC(=O)NC5=O)c(F)c4)C3)(C1)C2)C1CC1 (stereo not drawn) [Compound 78, 3-(cyclopropyl(methyl)carbamoyl)bicyclo[1.1.1]pentan-1-yl (1-(4-(2,6-dioxopiperidin-3-yl)-3,5-difluorophenyl)azetidin-3-yl)carbamate] | 50 to 80 | ≤ 100 | –
N#Cc1ccc(C(=O)N2CC(OC(=O)NC3CN(c4cc(F)c(C5CCC(=O)NC5=O)c(F)c4)C3)C2)cc1 (stereo not drawn) [Compound 20, 1-(4-cyanobenzoyl)azetidin-3-yl (1-(4-(2,6-dioxopiperidin-3-yl)-3,5-difluorophenyl)azetidin-3-yl)carbamate] | 10 to 50 | ≤ 100 | –
COc1c(N2CC(Nc3nnc(C4CC5(CCC5)C4)o3)C2)ccc(C2CCC(=O)NC2=O)c1Cl (stereo not drawn) [Compound 91, 3-(2-chloro-3-methoxy-4-(3-((5-(spiro[3.3]heptan-2-yl)-1,3,4-oxadiazol-2-yl)amino)azetidin-1-yl)phenyl)piperidine-2,6-dione] | > 80 | 100 to 1000 | –
CN(C(=O)C12CC(OC(=O)NC3CN(c4cc(F)c(C5CCC(=O)NC5=O)c(F)c4)C3)(C1)C2)c1ccccc1 (stereo not drawn) [Compound 81, 3-(methyl(phenyl)carbamoyl)bicyclo[1.1.1]pentan-1-yl (1-(4-(2,6-dioxopiperidin-3-yl)-3,5-difluorophenyl)azetidin-3-yl)carbamate] | > 80 | ≤ 100 | –
O=C1CCC(c2c(F)cc(N3CC(NC(=O)OC4CN(C(=O)C5CC5)C4)C3)cc2F)C(=O)N1 (stereo not drawn) [Compound 41, 1-(cyclopropanecarbonyl)azetidin-3-yl (1-(4-(2,6-dioxopiperidin-3-yl)-3,5-difluorophenyl)azetidin-3-yl)carbamate] | 10 to 50 | ≤ 100 | –
C[C@@H]1[C@@H](Nc2nnc(C3CC4(CCC4)C3)o2)CN1c1cc(F)c(C2CCC(=O)NC2=O)c(F)c1 (stereo partly drawn) [Compound 142, 3-(2,6-difluoro-4-((2R,3S)-2-methyl-3-((5-(spiro[3.3]heptan-2-yl)-1,3,4-oxadiazol-2-yl)amino)azetidin-1-yl)phenyl)piperidine-2,6-dione] | 50 to 80 | ≤ 100 | –
O=C1CCC(c2c(F)cc(N3CC(Nc4nnc(-c5cccnc5)o4)C3)cc2F)C(=O)N1 (stereo not drawn) [Compound 128, 3-(2,6-difluoro-4-(3-((5-(pyridin-3-yl)-1,3,4-oxadiazol-2-yl)amino)azetidin-1-yl)phenyl)piperidine-2,6-dione] | 50 to 80 | ≤ 100 | –
CN(C(=O)C12CC(OC(=O)NC3CN(c4cc(F)c(C5CCC(=O)NC5=O)c(F)c4)C3)(C1)C2)c1ccc(OC(F)(F)F)cc1 (stereo not drawn) [Compound 125, 3-(methyl(4-(trifluoromethoxy)phenyl)carbamoyl)bicyclo[1.1.1]pentan-1-yl (1-(4-(2,6-dioxopiperidin-3-yl)-3,5-difluorophenyl)azetidin-3-yl)carbamate] | 50 to 80 | ≤ 100 | –
O=C1CCC(c2c(F)cc(N3CC(NC(=O)OC4CN(C(=O)N5CCc6ccccc65)C4)C3)cc2F)C(=O)N1 (stereo not drawn) [Compound 9, 1-(indoline-1-carbonyl)azetidin-3-yl (1-(4-(2,6-dioxopiperidin-3-yl)-3,5-difluorophenyl)azetidin-3-yl)carbamate] | > 80 | ≤ 100 | –
COC12CC(c3nnc(N[C@H]4CN(c5cc(F)c(C6CCC(=O)NC6=O)c(F)c5)[C@@H]4C)o3)(C1)C2 (stereo partly drawn) [Compound 139, 3-(2,6-difluoro-4-((2R,3S)-3-((5-(3-methoxybicyclo[1.1.1]pentan-1-yl)-1,3,4-oxadiazol-2-yl)amino)-2-methylazetidin-1-yl)phenyl)piperidine-2,6-dione] | 50 to 80 | 100 to 1000 | –
CC(C)(C)[Si](C)(C)O[C@H]1C[C@@H](OC(=O)NC2CN(c3cc(F)c(C4CCC(=O)NC4=O)c(F)c3)C2)C1 (stereo partly drawn) [Compound 48] | – | ≤ 100 | > 80
CN(C(=O)C12CC(OC(=O)NC3CN(c4cc(F)c(C5CCC(=O)NC5=O)c(F)c4)C3)(C1)C2)c1ccc(F)cc1 (stereo not drawn) [Compound 132, 3-((4-fluorophenyl)(methyl)carbamoyl)bicyclo[1.1.1]pentan-1-yl (1-(4-(2,6-dioxopiperidin-3-yl)-3,5-difluorophenyl)azetidin-3-yl)carbamate] | 50 to 80 | ≤ 100 | –
CC(C)(CCOC(=O)NC1CN(c2cc(F)c(C3CCC(=O)NC3=O)c(F)c2)C1)C1CC1 (stereo not drawn) [Compound 65, 3-cyclopropyl-3-methylbutyl (1-(4-(2,6-dioxopiperidin-3-yl)-3,5-difluorophenyl)azetidin-3-yl)carbamate] | > 80 | ≤ 100 | –
COc1ccc(N(C)C(=O)N2CC(OC(=O)NC3CN(c4cc(F)c(C5CCC(=O)NC5=O)c(F)c4)C3)C2)cc1 (stereo not drawn) [Compound 13, 1-((4-methoxyphenyl)(methyl)carbamoyl)azetidin-3-yl(1-(4-(2,6-dioxopiperidin-3-yl)-3,5-difluorophenyl)azetidin-3-yl)carbamate] | 50 to 80 | ≤ 100 | –
O=C1CCC(c2c(F)cc(N3CC(Nc4nnc(C5CC6(CCC6)C5)o4)C3)cc2F)C(=O)N1 (stereo not drawn) [Compound 107, 3-(2,6-difluoro-4-(3-((5-(spiro[3.3]heptan-2-yl)-1,3,4-oxadiazol-2-yl)amino)azetidin-1-yl)phenyl)piperidine-2,6-dione] | > 80 | ≤ 100 | –
O=C1CCC(c2c(F)cc(N3CC(NC(=O)OC4CN(C(=O)N5CCC5)C4)C3)cc2F)C(=O)N1 (stereo not drawn) [Compound 30, 1-(azetidine-1-carbonyl)azetidin-3-yl (1-(4-(2,6-dioxopiperidin-3-yl)-3,5-difluorophenyl)azetidin-3-yl)carbamate] | 50 to 80 | ≤ 100 | –
Cc1cccc(N2CC(OC(=O)NC3CN(c4cc(F)c(C5CCC(=O)NC5=O)c(F)c4)C3)C2)n1 (stereo not drawn) [Compound 80, 1-(6-methylpyridin-2-yl)azetidin-3-yl (1-(4-(2,6-dioxopiperidin-3-yl)-3,5-difluorophenyl)azetidin-3-yl)carbamate] | 50 to 80 | ≤ 100 | –
